In patent US20260014173A1, “Nutritional composition for stroke” (N.V. Nutricia, priority 2022, published 2026):

Experiments:
[1] = test system: PC12 pheochromocytoma cells; assay: Neurite outgrowth in in vitro PC12 neuronal cell model (NGF, no hypoxia), Examples 5 and 6; type: cell-based; conditions: total concentration of 20 μM choline from chol-CI, PC or both, control set at 100%
Procedure: The effects of nutrient supplementation on neurite outgrowth parameters in PC12 pheochromocytoma cells was also assessed.
PC12 pheochromocytoma cells were grown in DMEM (Gibco), supplemented with 10% fetal bovine serum (FBS), penicillin (100 units/ml), and streptomycin (100 μg/ml) (Gibco), under a humidified atmosphere with 95% air and 5% CO2 at 37° C. Cells were seeded in collagen (0.01 mg/ml) coated 96 well plates at a density of 5000 cells/well and after 24 hours supplemented with medium containing 20 ng/ml nerve growth factor (NGF) with or without coenzyme Q10 (1 μM), vitamin D3 ((0.25 μM), vitamin B2 (0.5 μM), DHA (6.7 μM), a source of choline (20 μM phosphatidylcholine, PC) or a mixture thereof.
In the PC12 experiments the cells were not exposed to hypoxia.
Docosahexaenoic acid (DHA) was resuspended in absolute ethanol and diluted 5 times in fetal bovine serum. All compounds were purchased from Sigma (Zwijndrecht, The Netherlands).
Supplementation of cells was performed in 6-fold in 96 wells plates. These conditions were compared to non-supplemented cells. After supplementation for 48 hours with these combinations, cells were stained using Calcein-AM stain (2 ng/μl) and the nuclei were counterstained using Hoechst stain (0.6 μg/ml), in 100 μl culture medium per well and incubated for 20 min at 37° C. Subsequently, FITC and DAPI images (9 images per well for 96 wells plate) were taken using an ImageXpress high content imaging system. Neurite length was quantified using the neurite outgrowth module in MetaXpress.
Nutrients were supplemented alone (100% chol-CI or 100% PC) and in a ratio of 60:40 and 40:60 of chol-CI to PC. Supplementation of cells was performed in 6-fold in 96 wells plates at a total concentration of 20 μM choline, derived from chol-CI, from PC, or from both. The neurite outgrowth in these conditions were compared to non-supplemented PC12 cells.

[2] = test system: Mouse primary cortical neurons (E14); assay: Neurite outgrowth after hypoxia (oxygen glucose deprivation), cortical neuronal cultures, Example 3; type: cell-based; conditions: OGD 3.5 hrs; vitamin D3 30 nM, co-enzyme Q10 3 μM, vitamin B2 30 nM, alone or combined; supplemented immediately after OGD for 24 hrs; control set at 100%
Procedure: Mouse primary cortical neurons (E14) were seeded onto 96-well plates coated with poly-D-lysine. Cells (20.000 cells/well) were cultured in modified Neurobasal medium (containing B27, Pen/Strep, and GlutaMAX). Cell cultures were incubated at 37° C. in 5% CO2 and medium was replaced every 2-3 days. At day 2 of in vitro culturing, cells underwent oxygen glucose deprivation (OGD) for 3.5 hrs. In order to induce glucose deprivation, modified Neurobasal medium was replaced with an equivalent volume of HBSS. For hypoxia, cells were placed in a humidity-controlled incubator (Whitley H35 Hypoxystation) set to 0.5% O2, 94.5% N2 and 5% CO2 at 37° C. for 3.5 hrs. After the hypoxic incubation period, HBSS was removed and replaced with modified Neurobasal medium, and plates returned to normoxic conditions and incubated at 37° C. in 5% CO2 for an additional 24 hrs. […] Nutrients were supplemented either alone, in combination of two, or in combination of three, starting immediately after the OGD and lasting for another 24 hrs. Every condition was tested in triplicate. […] At the end of the experiment, plates were fixed PFA for 5 min at room temperature. Then, cells were permeabilized and blocked using PBS containing 10% normal goat serum, 0.1% sodium azide and 0.2% Triton X-100. Cells were stained overnight with a monoclonal anti-beta-tubulin III antibody (Sigma Aldrich, T8578). Next, cells were stained with the secondary antibody Alexa Fluor 488 Goat anti-Mouse IgG (H+L) (Invitrogen A11001 Fisher, 10256302). Nuclei were stained with Hoechst 33342 (Thermofisher, H3570). Images were taken at a magnification of 20× in 12 fields of view using In Cell Analyser 2000.

Row | Molecule | neurite outgrowth compared to unsupplemented control PC12 cells [1] | neurite outgrowth after hypoxia relative to control [2] | neurite outgrowth compared to unsupplemented control PC12 cells ([1]; listed as PC)
1 | C[N+](C)(C)CCO.[Cl-] [100% chol-CI, choline chloride] | improved neurite outgrowth | – | –
2 | COC1=C(OC)C(=O)C(C/C=C(\C)CC/C=C(\C)CC/C=C(\C)CC/C=C(\C)CC/C=C(\C)CC/C=C(\C)CC/C=C(\C)CC/C=C(\C)CC/C=C(\C)CCC=C(C)C)=C(C)C1=O [co-enzyme Q10, 2,3 dimethoxy-5 methyl-6-decaprenyl benzoquinone] | – | did not affect neurite outgrowth | –
3 | Cc1cc2nc3c(=O)[nH]c(=O)nc-3n(C[C@H](O)[C@H](O)[C@H](O)CO)c2cc1C [vitamin B2, riboflavin] | – | did not affect neurite outgrowth | –
4 | C=C1CC[C@H](O)C/C1=C/C=C1\CCC[C@]2(C)[C@@H]([C@H](C)CCCC(C)C)CC[C@@H]12 [vitamin D3, cholecalciferol] | – | did not affect neurite outgrowth | –
5 | phosphatidylcholine [100% PC] | increases neurite outgrowth slightly more than supplementation with 100% chol-CI | – | slightly better effect on neurite outgrowth than choline chloride
